Article PMC10653547, “Synergistic effect of two antimicrobial peptides, BP203 and MAP-0403 J-2 with conventional antibiotics against colistin-resistant Escherichia coli and Klebsiella pneumoniae clinical isolates” (PLOS ONE, 2023)
Entries after “also recorded” stand apart in the source; their conditions may differ. Where two headings read alike, the source gives them in different places. No end group written: not given here.

Columns and labels:
[1] = tested on: MRC-5 (CCL-171) normal lung fibroblast cells; experiment: Cytotoxicity assay using MTT; assay type: cell-based, human; conditions: for Cell viability at highest concentration: 200 μg/mL, 24 h; for IC50: 24 h exposure
Procedure: MRC-5 (CCL-171) cell line, a representative of normal lung fibroblast cells, was used to investigate the cytotoxic effects of two AMPs, BP203 and MAP-0403 J-2. The cells were grown in Dulbecco’s Modified Eagle Medium (DMEM, Cytiva Life Sciences, Marlborough, MA, USA), supplemented with 10% fetal bovine serum (FBS), 1% penicillin (10,000 U/mL) and streptomycin (10,000 μg/mL) (Gibco, Waltham, MA, USA). 2×10^4 cells were seeded into each well of a 96-well plate and allowed to adhere for 24 h. Then, these cells were subjected to exposure to a medium containing a prepared two-fold serial dilution of BP203 or MAP-0403 J-2. […] 3-(4,5-Dimethylthiazol-2-yl)-2,5-Diphenyltetrazolium Bromide (MTT) was introduced into each well to achieve a concentration of 0.5 mg/mL followed by 4 h. incubation. Subsequently, formazan crystals were dissolved through the addition of 100 μL of a solubilizing solution composed of 10% SDS in 0.1 N HCl and the developed color was measured using a microtiter plate reader at an optical density (OD) of 570 nm. Cell viability was calculated as follows: (ODsample/ODcontrol) × 100.

[2] = cited from earlier work
Source text: The stability of AMPs is crucial for storage and applications. Temperature and pH are critical parameters impacting AMP stability. In addition, the good stability of AMPs to physiological salts and serum has been considered a desirable property for clinical applications. In this study, BP203 and MAP-0403 J-2 retained antibacterial activity under elevated temperatures, various pH conditions, and in the presence of physiological salts and serum environment. […] The hemolytic activity of BP203 at 150 μM (~300 μg/mL) wa ...

sheep red blood cells = experiment: Hemolytic activity assay; assay type: cell-based; conditions: at concentrations as high as 200 μg/mL
Procedure: Sheep erythrocytes were employed to assess the hemolytic activity of BP203 and MAP-0403 J-2, following previously described with some modifications. Briefly, defibrinated sheep red blood cells (sRBCs) were centrifuged at 1,000× g, 4°C for 10 min. The packed sRBCs underwent three times washes with phosphate buffer saline (PBS), at pH 7.4, and were subsequently suspended in PBS to achieve a concentration of 4% (v/v). […] Following an incubation period of 1 h at 37°C, the mixtures were centrifuged at room temperature, 1,000× g for 10 min. The supernatants were collected and transferred to a 96-well microplate. Next, absorbance measurement was taken at 540 nm using a microplate reader (Tecan Group, Zurich, Switzerland). Blank, negative and positive controls were established using sRBCs incubated with PBS alone, BSA solution, and 0.1% Triton X-100, respectively. […] The percentage of hemolytic activity was calculated with the following equation: Hemolysis (%) = {(Sample absorbance—PBS absorbance)/(0.1% Triton X-100 absorbance—PBS absorbance)} × 100.

E. coli ATCC 25922 = tested on: E. coli ATCC 25922
Procedure: (§1) The MICs of BP203 and MAP-0403 J-2 against clinically colistin-resistant E. coli and K. pneumoniae isolates were determined using the broth microdilution method, according to CLSI recommendations. Briefly, the peptides were subjected to serial dilution in cation-adjusted Mueller-Hinton broth (CAMHB) and added to a 96-well microtiter plate (Wuxi NEST Biotechnology, Wuxi, China). Subsequently, bacterial suspensions from freshly mid-log phase cultures were diluted to 10^6 CFU/mL with CAMHB, and introduced to each well containing the peptides.
(§2) The antibacterial activity of BP203 and MAP-0403 J-2 was evaluated concerning their response to temperature, pH, serum, and salt ions using the MIC assay, following the previously mentioned procedure. The MIC values of peptides were determined against E. coli ATCC29522 and K. pneumoniae ATCC BAA-1706. […] For the pH stability assay, both peptides were incubated in buffers with different pH values (100 mM buffers: glycine-HCl buffer (pH 2.0), sodium acetate buffer (pH 4.0), sodium phosphate buffer (pH 6.0), Tris-HCl buffer (pH 8.0), and glycine-NaOH buffer (pH 10.0)) for 1 h at 37°C. […] For serum stability assay, both peptides were exposed to 25% and 50% fetal bovine serum (FBS) for 1 h at 37°C, followed by a heat activation step for 30 min at 60°C. Afterward, the peptide solutions were serially diluted and MIC was subsequently determined. […] The serial dilutions of peptides were incubated with tested strains for MIC testing. The MICs were observed after 20–24 h of incubation at 37°C.

[3] = tested on: K. pneumoniae ATCC BAA-1706
Procedure: as §1, §2

Compound	Cell viability at highest concentration [1] [%]	IC50 [1] [µg/mL]	Hemolysis (in words) (sheep red blood cells)	MIC in the presence of physiological salts (E. coli ATCC 25922; Control, 0) [μg/mL]	MIC in the presence of physiological salts (E. coli ATCC 25922; FeCl3 1 μM) [μg/mL]	MIC in the presence of physiological salts (E. coli ATCC 25922; FeCl3 4 μM) [μg/mL]	MIC in the presence of physiological salts (E. coli ATCC 25922; FeCl3 8 μM) [μg/mL]	MIC in the presence of physiological salts (E. coli ATCC 25922; MgCl2 0.5 mM) [μg/mL]	MIC in the presence of physiological salts (E. coli ATCC 25922; MgCl2 1 mM) [μg/mL]	MIC in the presence of physiological salts (E. coli ATCC 25922; MgCl2 2 mM) [μg/mL]	MIC in the presence of physiological salts (E. coli ATCC 25922; NaCl 100 mM) [μg/mL]	MIC in the presence of physiological salts (E. coli ATCC 25922; NaCl 150 mM) [μg/mL]	MIC in the presence of physiological salts (E. coli ATCC 25922; NaCl 200 mM) [μg/mL]	MIC in the presence of physiological salts ([3]; Control, 0) [μg/mL]	MIC in the presence of physiological salts ([3]; FeCl3 1 μM) [μg/mL]	MIC in the presence of physiological salts ([3]; FeCl3 4 μM) [μg/mL]	MIC in the presence of physiological salts ([3]; FeCl3 8 μM) [μg/mL]	MIC in the presence of physiological salts ([3]; MgCl2 0.5 mM) [μg/mL]	MIC in the presence of physiological salts ([3]; MgCl2 1 mM) [μg/mL]	MIC in the presence of physiological salts ([3]; MgCl2 2 mM) [μg/mL]	further results
CC[C@H](C)[C@H](NC(=O)[C@H](CCCCN)NC(=O)[C@H](CCCCN)NC(=O)[C@H](Cc1ccccc1)NC(=O)[C@H](CC(C)C)NC(=O)[C@H](CCCCN)NC(=O)[C@@H](N)CCCCN)C(=O)N[C@@H](CC(C)C)C(=O)N[C@@H](CCCNC(=N)N)C(=O)N[C@@H](Cc1ccc(O)cc1)C(=O)N[C@@H](CC(C)C)C(N)=O [BP203]	56.01	> 200	negligible hemolysis; also recorded: no hemolytic activity	4	4	4	4	4	4	8	8	16	16	4	4	8	8	4	8	8	Hemolytic activity ([2]; at 150 μM (~300 μg/mL)): 31%; MIC in the presence of physiological salts ([3]; NaCl 100 mM): 8 μg/mL; MIC in the presence of physiological salts ([3]; NaCl 150 mM): 16 μg/mL; MIC in the presence of physiological salts ([3]; NaCl 200 mM): 16 μg/mL
KWLRRPWRRWR-NH2 [MAP-0403 J-2]	73.43	> 200	negligible hemolysis; also recorded: no hemolytic activity	16	16	16	16	16	16	16	32	64	64	16	16	16	32	16	16	16	Hemolytic activity ([2]; at 100 μM (~678 μg/mL)): 3.4%; MIC in the presence of physiological salts ([3]; NaCl 100 mM): 32 μg/mL; MIC in the presence of physiological salts ([3]; NaCl 150 mM): 64 μg/mL; MIC in the presence of physiological salts ([3]; NaCl 200 mM): 64 μg/mL
